Where two headings read alike, the source gives them in different places.
How the values were obtained:
PI3Kβ = target: T1, PI3Kβ (Homo sapiens, UniProt P42338); assay: Enzyme binding assay (KINOMEscan, DiscoveRx); settings: PIK3Cβ_h, read-out: Kd PIK3Cβ_h
T1 construct: purchased DiscoveRx Corporation, San Diego (contract service, KINOMEscan)
Method in brief: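 Reported Kd (nM) reflects inhibitor binding to the kinase, as measured by KINOMEscan technology.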

[1] = system: Akt phosphorylated at Ser473 in PC-3 cells; assay: Cellular assay: phosphorylation of Akt at Ser473 in PC-3 cells (MSD ELISA); assay type: cell-based; settings: PC-3 cells, 60 min compound incubation, MSD ELISA, read-out: IC50 pAkt_S473
Method in brief: (§1)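 Phospho-Akt in whole-cell lysates is quantified by electrochemiluminescent immunoassay using phospho-site capture and total-Akt detection antibodies.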

[2] = system: Akt phosphorylated at Thr308 in PC-3 cells; assay: Cellular assay: phosphorylation of Akt at Thr308 in PC-3 cells (MSD ELISA); assay type: cell-based; settings: PC-3 cells, 60 min compound incubation, MSD ELISA, read-out: IC50 pAkt_Thr308
Method in brief: as §1

PI3Kδ = target: T2, PI3Kδ (Homo sapiens, UniProt O00329); assay: Enzyme binding assay (KINOMEscan, DiscoveRx); settings: PIK3Cδ_h
T2 construct: purchased DiscoveRx Corporation, San Diego (contract service, KINOMEscan)
T2 sequence (O00329 1-1044): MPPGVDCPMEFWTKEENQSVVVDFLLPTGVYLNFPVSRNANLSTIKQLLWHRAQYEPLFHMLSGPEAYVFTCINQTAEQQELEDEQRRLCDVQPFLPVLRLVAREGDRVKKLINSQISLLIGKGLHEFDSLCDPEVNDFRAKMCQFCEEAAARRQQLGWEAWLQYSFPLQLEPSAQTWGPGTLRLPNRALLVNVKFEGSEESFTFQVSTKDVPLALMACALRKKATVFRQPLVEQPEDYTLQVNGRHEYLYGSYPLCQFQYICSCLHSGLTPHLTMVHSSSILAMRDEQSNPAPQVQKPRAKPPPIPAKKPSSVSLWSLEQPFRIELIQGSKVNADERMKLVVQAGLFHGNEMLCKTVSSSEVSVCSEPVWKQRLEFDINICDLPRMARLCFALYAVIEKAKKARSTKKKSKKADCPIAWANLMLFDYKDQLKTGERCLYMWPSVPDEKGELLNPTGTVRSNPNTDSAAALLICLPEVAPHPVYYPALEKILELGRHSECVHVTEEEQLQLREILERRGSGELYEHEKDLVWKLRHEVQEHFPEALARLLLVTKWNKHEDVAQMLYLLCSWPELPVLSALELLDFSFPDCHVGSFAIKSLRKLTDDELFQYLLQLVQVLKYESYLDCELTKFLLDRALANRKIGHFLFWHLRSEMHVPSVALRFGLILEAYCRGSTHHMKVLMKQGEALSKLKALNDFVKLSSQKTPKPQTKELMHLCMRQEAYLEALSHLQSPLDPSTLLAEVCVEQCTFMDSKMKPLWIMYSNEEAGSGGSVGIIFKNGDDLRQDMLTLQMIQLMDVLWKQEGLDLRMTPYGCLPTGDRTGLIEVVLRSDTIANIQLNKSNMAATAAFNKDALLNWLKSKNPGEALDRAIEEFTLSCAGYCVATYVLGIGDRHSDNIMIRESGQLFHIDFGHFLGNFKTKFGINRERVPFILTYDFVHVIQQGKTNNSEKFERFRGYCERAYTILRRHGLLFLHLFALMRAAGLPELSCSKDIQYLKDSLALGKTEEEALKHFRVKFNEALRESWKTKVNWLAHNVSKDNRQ
Method in brief: (§2)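 Kinase binding measured via KINOMEscan, reported as affinity.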

kinase enzymes [3] = target: T3, kinase enzymes (Homo sapiens, UniProt P42336); assay: Enzyme binding assay (KINOMEscan, DiscoveRx), further kinases of Table A; settings: PIK3Cα_h
T3 construct: purchased DiscoveRx Corporation, San Diego (contract service, KINOMEscan)
T3 sequence (P42336 whole entry): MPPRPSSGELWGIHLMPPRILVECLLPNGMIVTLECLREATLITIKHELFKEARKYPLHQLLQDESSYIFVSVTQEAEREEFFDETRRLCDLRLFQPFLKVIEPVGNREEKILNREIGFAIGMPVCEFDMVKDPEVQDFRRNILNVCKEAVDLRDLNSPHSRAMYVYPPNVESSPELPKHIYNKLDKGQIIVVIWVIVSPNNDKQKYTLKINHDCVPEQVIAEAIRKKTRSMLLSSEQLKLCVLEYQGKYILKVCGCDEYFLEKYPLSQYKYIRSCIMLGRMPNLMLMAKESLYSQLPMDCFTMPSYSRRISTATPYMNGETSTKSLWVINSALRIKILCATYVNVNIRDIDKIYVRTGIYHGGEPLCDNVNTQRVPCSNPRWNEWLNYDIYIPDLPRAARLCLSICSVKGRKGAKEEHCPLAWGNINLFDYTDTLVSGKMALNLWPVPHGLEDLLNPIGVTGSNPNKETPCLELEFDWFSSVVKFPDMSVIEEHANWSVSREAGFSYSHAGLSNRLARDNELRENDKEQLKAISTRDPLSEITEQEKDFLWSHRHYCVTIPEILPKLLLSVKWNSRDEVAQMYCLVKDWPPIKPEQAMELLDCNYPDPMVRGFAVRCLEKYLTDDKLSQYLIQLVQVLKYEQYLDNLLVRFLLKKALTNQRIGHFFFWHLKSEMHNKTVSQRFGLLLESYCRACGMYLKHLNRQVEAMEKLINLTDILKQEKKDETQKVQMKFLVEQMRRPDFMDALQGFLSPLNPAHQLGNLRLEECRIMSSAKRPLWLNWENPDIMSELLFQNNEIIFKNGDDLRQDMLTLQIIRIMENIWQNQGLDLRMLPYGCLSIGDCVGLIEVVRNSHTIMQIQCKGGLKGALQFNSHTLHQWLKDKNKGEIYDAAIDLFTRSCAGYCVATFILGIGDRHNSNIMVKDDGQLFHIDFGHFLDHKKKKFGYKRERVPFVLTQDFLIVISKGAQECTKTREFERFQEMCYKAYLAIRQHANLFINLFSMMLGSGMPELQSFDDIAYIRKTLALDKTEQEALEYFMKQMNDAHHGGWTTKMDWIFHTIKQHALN
Method in brief: as §2

kinase enzymes [4] = target: T4, kinase enzymes (Homo sapiens, UniProt P42345); assay: as above; settings: MTOR_h
T4 construct: purchased DiscoveRx Corporation, San Diego (contract service, KINOMEscan)
Method in brief: as §2

kinase enzymes [5] = target: T5, kinase enzymes (Homo sapiens, UniProt P48736); assay: as above; settings: PIK3Cγ_h
T5 construct: purchased DiscoveRx Corporation, San Diego (contract service, KINOMEscan)
T5 sequence (P48736 whole entry): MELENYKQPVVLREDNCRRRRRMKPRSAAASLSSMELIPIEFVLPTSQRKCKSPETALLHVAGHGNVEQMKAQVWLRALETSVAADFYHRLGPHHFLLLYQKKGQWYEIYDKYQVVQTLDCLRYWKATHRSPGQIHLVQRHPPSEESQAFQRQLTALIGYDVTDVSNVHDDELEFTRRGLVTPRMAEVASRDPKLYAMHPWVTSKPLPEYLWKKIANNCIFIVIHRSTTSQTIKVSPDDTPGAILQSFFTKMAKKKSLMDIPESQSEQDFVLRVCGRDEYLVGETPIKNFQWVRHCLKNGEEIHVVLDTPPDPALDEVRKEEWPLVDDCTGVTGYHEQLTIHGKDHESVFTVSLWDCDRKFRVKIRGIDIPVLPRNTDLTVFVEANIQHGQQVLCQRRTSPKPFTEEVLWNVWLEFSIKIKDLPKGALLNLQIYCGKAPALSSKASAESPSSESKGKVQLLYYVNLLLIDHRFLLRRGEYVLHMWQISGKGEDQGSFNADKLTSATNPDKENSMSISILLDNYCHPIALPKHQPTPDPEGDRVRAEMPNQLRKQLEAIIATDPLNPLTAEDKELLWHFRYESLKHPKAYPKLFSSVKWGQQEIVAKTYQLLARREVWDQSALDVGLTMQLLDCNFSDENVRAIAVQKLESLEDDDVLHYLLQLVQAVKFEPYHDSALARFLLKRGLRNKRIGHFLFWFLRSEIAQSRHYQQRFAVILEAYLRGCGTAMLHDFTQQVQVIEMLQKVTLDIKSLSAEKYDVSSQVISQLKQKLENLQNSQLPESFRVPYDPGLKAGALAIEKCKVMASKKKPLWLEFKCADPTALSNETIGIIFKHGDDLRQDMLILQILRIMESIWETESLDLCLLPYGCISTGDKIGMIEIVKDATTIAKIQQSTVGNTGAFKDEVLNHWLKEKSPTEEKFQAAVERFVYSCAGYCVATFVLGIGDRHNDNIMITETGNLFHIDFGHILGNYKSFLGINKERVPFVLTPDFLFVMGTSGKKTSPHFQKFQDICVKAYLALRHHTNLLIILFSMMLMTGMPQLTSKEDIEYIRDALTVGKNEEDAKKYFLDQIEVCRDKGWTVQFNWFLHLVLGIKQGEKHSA
Method in brief: as §2

T1 sequence (P42338 whole entry): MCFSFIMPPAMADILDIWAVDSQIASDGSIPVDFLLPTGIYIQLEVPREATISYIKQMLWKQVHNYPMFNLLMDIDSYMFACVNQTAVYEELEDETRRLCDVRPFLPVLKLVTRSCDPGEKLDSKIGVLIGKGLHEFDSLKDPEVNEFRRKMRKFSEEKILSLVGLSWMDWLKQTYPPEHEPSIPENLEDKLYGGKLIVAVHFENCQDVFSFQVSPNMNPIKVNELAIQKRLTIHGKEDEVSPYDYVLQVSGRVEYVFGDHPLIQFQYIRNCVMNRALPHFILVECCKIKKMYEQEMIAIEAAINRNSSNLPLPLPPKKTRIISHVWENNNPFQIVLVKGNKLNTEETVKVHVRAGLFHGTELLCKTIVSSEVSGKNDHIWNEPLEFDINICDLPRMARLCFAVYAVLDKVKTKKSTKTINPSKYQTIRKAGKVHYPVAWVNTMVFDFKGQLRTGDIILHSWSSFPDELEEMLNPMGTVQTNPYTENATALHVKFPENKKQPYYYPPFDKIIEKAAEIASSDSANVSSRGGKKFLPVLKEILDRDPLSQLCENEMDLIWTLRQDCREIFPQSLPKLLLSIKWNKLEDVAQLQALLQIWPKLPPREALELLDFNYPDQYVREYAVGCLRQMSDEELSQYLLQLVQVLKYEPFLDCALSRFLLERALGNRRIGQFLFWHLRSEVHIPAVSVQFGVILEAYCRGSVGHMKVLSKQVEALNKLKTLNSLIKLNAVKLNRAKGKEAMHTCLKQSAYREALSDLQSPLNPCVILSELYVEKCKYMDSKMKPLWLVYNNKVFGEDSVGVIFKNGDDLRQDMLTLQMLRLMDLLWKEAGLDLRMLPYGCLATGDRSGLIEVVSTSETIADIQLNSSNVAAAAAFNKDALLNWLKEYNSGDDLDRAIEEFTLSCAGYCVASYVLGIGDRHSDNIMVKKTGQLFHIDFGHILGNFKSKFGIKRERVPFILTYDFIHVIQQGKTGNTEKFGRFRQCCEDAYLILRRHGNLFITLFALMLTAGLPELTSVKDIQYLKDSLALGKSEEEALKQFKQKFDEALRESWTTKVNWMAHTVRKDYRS

Kd (PI3Kβ) | IC50 ([1]; Homo sapiens, PC-3, 1 h) | IC50 ([2]; Homo sapiens, PC-3, 1 h) | Kd (PI3Kδ) | Kd (kinase enzymes [3]) | Kd (kinase enzymes [4]) | Kd (kinase enzymes [5]) | melting point | IC50 [1] | IC50 [2] | Compound
0.001 µM | 0.018 µM | 0.008 µM | 0.174 µM | 0.832 µM | > 30.2 µM | 4.68 µM | 118 °C |  |  | CC(Nc1cccc(F)c1)c1cc(C(=O)N2CC[C@@H](O)C2)cc2ncc(N3CCOCC3)nc12 (single isomer, unassigned) [Compound 321a]
0.0001 µM |  |  | 0.026 µM | 0.339 µM | 22.9 µM | 2.75 µM | 121 °C | 0.014 µM | 0.006 µM | CC(Nc1ccc(F)c(F)c1)c1cc(C(=O)NCC2CCCN2)cc2ncc(N3CCOCC3)nc12 (single isomer, unassigned) [Compound 329a]
0.042 µM |  |  | 1.78 µM | 6.03 µM | 22.9 µM | 6.31 µM | 124 °C | > 0.513 µM | > 0.513 µM | CC(Nc1ccc(F)c(F)c1)c1cc(C(=O)NCC2CCCN2)cc2ncc(N3CCOCC3)nc12 (single isomer, unassigned) [Compound 329b]
0.019 µM | 0.339 µM |  | 1.07 µM | 5.37 µM | 26.9 µM | 12.9 µM | 136 °C |  | 0.219 µM | CC(Oc1cccc(F)c1)c1cc(C(=O)NCCO)cc2ncc(N3CCOCC3)nc12 (single isomer, unassigned) [Compound 334a]
0.457 µM |  |  | 7.59 µM | 21.4 µM | 17.4 µM | 11 µM | 134 °C | > 0.513 µM | > 0.513 µM | CC(Oc1cccc(F)c1)c1cc(C(=O)NCCO)cc2ncc(N3CCOCC3)nc12 (single isomer, unassigned) [Compound 334b]
0.011 µM |  |  | 3.42 µM | 8.31 µM | > 30.2 µM | 13.5 µM | 80 °C | 0.188 µM | 0.207 µM | CNCCN(C)C(=O)c1cc(C(C)Nc2cc(F)c(F)c(F)c2)c2nc(N3CCOCC3)cnc2c1 (single isomer, unassigned) [Compound 335b]
0.011 µM |  |  | 1.07 µM | 1.51 µM | 25.7 µM | 7.24 µM | 89.8 °C | 0.115 µM | 0.068 µM | CC(Nc1cccc(F)c1)c1cc(C(=O)NC[C@@H](C)O)cc2ncc(N3CCOCC3)nc12 (single isomer, unassigned) [Compound 338a]
0.851 µM |  |  | > 30.2 µM | 22.9 µM | 20 µM | 2.34 µM | 90.8 °C | > 0.513 µM | > 0.513 µM | CC(Nc1cccc(F)c1)c1cc(C(=O)NC[C@@H](C)O)cc2ncc(N3CCOCC3)nc12 (single isomer, unassigned) [Compound 338b]
0.002 µM |  |  | 0.288 µM | 2.14 µM | > 30.2 µM | 8.32 µM | 75 °C | > 0.102 µM | 0.056 µM | CNCCNC(=O)c1cc(C(C)Oc2ccc(F)c(F)c2)c2nc(N3CCOCC3)cnc2c1 (single isomer, unassigned) [Compound 344a]
0.002 µM |  |  | 0.282 µM | 4.37 µM | > 30.2 µM | 14.8 µM | 80 °C | 0.079 µM | 0.028 µM | CNCCOCCN(C)C(=O)c1cc(C(C)Nc2ccc(F)c(F)c2)c2nc(N3CCOCC3)cnc2c1 (single isomer, unassigned) [Compound 345a]
0.003 µM |  |  | 0.955 µM | 2.51 µM | 30.9 µM | 9.55 µM | 107 °C | 0.178 µM | 0.068 µM | CC(Nc1ccc(F)c(F)c1)c1cc(C(=O)NC[C@@H](C)O)cc2ncc(N3CCOCC3)nc12 (single isomer, unassigned) [Compound 346a]
0.741 µM |  |  | 20.9 µM | 23.4 µM | > 30.2 µM | 2.75 µM | 106 °C | > 0.513 µM | > 0.513 µM | CC(Nc1ccc(F)c(F)c1)c1cc(C(=O)NC[C@@H](C)O)cc2ncc(N3CCOCC3)nc12 (single isomer, unassigned) [Compound 346b]
2.69 µM | > 0.513 µM | > 0.513 µM | > 30.2 µM | > 30.2 µM | > 30.2 µM | > 30.2 µM | 125 °C |  |  | CC(Nc1ccc(F)c(F)c1)c1cc(C(=O)N2CCN3CCC[C@@H]3C2)cc2ncc(N3CCOCC3)nc12 (single isomer, unassigned) [Compound 347a]
0.01 µM | 0.288 µM |  | 0.912 µM | 3.02 µM | > 30.2 µM | 29.5 µM | 102 °C |  | 0.138 µM | CC(Nc1ccc(F)c(F)c1)c1cc(C(=O)NCC(C)(C)O)cc2ncc(N3CCOCC3)nc12 (single isomer, unassigned) [Compound 348a]
0.0002 µM |  |  | 0.036 µM | 0.813 µM | > 30.2 µM | 4.27 µM | 82 °C | 0.004 µM | 0.002 µM | CC(Nc1ccc(F)c(F)c1)c1cc(C(=O)N(C)CCN(C)C)cc2ncc(N3CCOCC3)nc12 (single isomer, unassigned) [Compound 349a]
3.31 µM | > 0.513 µM | > 0.513 µM | 16.2 µM | 22.9 µM | > 30.2 µM | > 30.2 µM | 116 °C |  |  | CC(Nc1ccc(F)c(F)c1)c1cc(C(=O)N2C[C@@H](C)N[C@@H](C)C2)cc2ncc(N3CCOCC3)nc12 (single isomer, unassigned) [Compound 357a]
0.01 µM | ~0.126 µM | 0.074 µM | 0.417 µM | 11 µM | > 30.2 µM | 26.9 µM | 80 °C |  |  | CC(Oc1ccc(F)c(F)c1)c1cc(C(=O)N2CC[C@H](N(C)C)C2)cc2ncc(N3CCOCC3)nc12 (single isomer, unassigned) [Compound 363a]
3.31 µM |  |  | 28.8 µM | > 30.2 µM | > 30.2 µM | > 30.2 µM | 147 °C | > 0.513 µM | > 0.513 µM | CC(Oc1ccc(F)c(F)c1)c1cc(C(=O)N2CCN3CCC[C@H]3C2)cc2ncc(N3CCOCC3)nc12 (single isomer, unassigned) [Compound 369b]
0.0003 µM |  |  | 0.107 µM | 1.23 µM | > 30.2 µM | 2.63 µM | 128 °C | 0.107 µM | 0.04 µM | CN[C@H]1CCN(C(=O)c2cc(C(C)Oc3ccc(F)c(F)c3)c3nc(N4CCOCC4)cnc3c2)C1 (single isomer, unassigned) [Compound 370a]
0.55 µM |  |  | 15.5 µM | > 30.2 µM | > 30.2 µM | > 30.2 µM | 80 °C | > 0.513 µM | > 0.513 µM | CN[C@H]1CCN(C(=O)c2cc(C(C)Oc3ccc(F)c(F)c3)c3nc(N4CCOCC4)cnc3c2)C1 (single isomer, unassigned) [Compound 370b]

Reference: US10526316B2, “Quinoxaline and pyridopyrazine derivatives as PI3Kβ inhibitors” (Janssen Pharmaceutica NV, priority 2015, dated 2020)
